{"source": "patent US4629736A", "about": "“Fatty acid derivatives and process of producing them” (Yamanouchi Pharmaceutical Co., Ltd., priority 1983, dated 1986)", "key": {"[1]": {"system": "Fibrin-clot (lysis by Urokinase)", "assay": "Fibrinolytic action (fibrin-clot lysis assay), clot lysis time relative to Urokinase alone", "format": "biochemical", "method": "FIBRINOLYTIC ACTION (Fibrin-clot lysis assay)\nFibrinogen (1 mg/50 μl, made by Green Cross Corporation) and various amounts of the test compounds, were added to test tubes, followed to make a total volume of 850 μl with cold Tris-buffered saline (20 mM Tris-buffer, pH 7.4, containing 140 mM NaCl). To the solutions were added 100 μl of Urokinase solution (30 CTA unit/0.1 ml) and 50 μl of thrombin solution (2 NIH units/50 μl) to make final clot volume of 1 ml each in test tubes in an ice bath. The tubes were quickly shaken to mix the reagents well and immediately placed in a 37° C. water bath, and the clot lysis time was recorded. Test compounds were dissolved in physiological saline, except contrast one dissolved in physiological saline containing 10% cremophore and 0.15% ethanol. Thus, by measuring the time of clot lysis, the relative activity of the fibrinolytic action of the test compound to that of Urokinase using the system of Urokinase alone as the control was determined. The results of the pharmacological effect of the compounds of this invention are shown in Table 1 below together with that of 3-hexadecanoyloctadecanoyl-β-alanyl-L-phenylalanine having the formula [drawing 15] which is one of the compounds having the most excellent fibrinolytic action in known compounds."}, "Solubility in saline": {"assay": "Solubility in saline", "format": "physicochemical", "text": "In particular, the compounds of this invention have been discovered after investigating the point of water solubility, which has never been attained in known acylpeptides. That is, the compounds of this invention have very improved water solubility, whereby sufficient pharmacological effect of the compounds can be expected and also the preparations of the compounds, such as the application to injections, and the like, can be easily performed. For example, the solubility of compound of Example 21 is more than 5 mg/ml saline."}, "mice": {"system": "mice", "assay": "Acute toxicity, intravenous injection to mice", "format": "in vivo", "settings": "mouse", "method": "In addition, the acute toxicity of the compound in Example 21 was measured as follows."}, "[2]": {"settings": "at 1 × 10^-5 M, solvent physiological saline solution"}}}
{"smiles": "CCCCCCCCCCOCCNC(=O)[C@H](CC(=O)O)NC(=O)COCCOCCCCCCCCCC", "note": "[Example 14, (S)-3-(3,6-dioxahexadecanamido)-3-(3-oxatridecylcarbamoyl)propionic acid]", "values": [{"measurement": "Fibrinolytic Action, maximum relative activity (%) with the activity of Urokinase alone being defined to 100%", "setting": "[1]; [2]", "value": 150, "unit": "%"}]}
{"smiles": "CCCCCCCCCCCCCCCC(CC(=O)N[C@@H](Cc1ccccc1)C(=O)O)OC(=O)COCCOCCOCCOCCCC", "note": "(stereo partly drawn) [Example 19, N-[3-(3,6,9,12-tetraoxahexadecanoyloxy)octadecanoyl]-L-phenylalnine]", "values": [{"measurement": "Fibrinolytic Action, maximum relative activity (%) with the activity of Urokinase alone being defined to 100%", "setting": "[1]; [2]", "value": "130-140%"}]}
{"smiles": "CCCCCCCCCCCCCCCC(CC(=O)N[C@@H](Cc1ccccc1)C(=O)O)OC(=O)COCCOCCOCCCCCC", "note": "(stereo partly drawn) [Example 20, N-[3-(3,6,9-trioxapentadecanoyloxy)octadecanoyl]-L-phenylalanine]", "values": [{"measurement": "Fibrinolytic Action, maximum relative activity (%) with the activity of Urokinase alone being defined to 100%", "setting": "[1]; [2]", "value": "130-150%"}]}
{"smiles": "CCCCCCCCCCCCCC(CC(=O)N[C@@H](Cc1ccccc1)C(=O)O)OC(=O)COCCOCCCCCCCCCC", "note": "(stereo partly drawn) [Example 21, N-[3-(3,6-dioxahexadecanoyloxy)hexadecanoyl]-L-phenylalanine]", "values": [{"measurement": "solubility", "setting": "Solubility in saline", "value": "more than 5 mg/ml saline"}, {"measurement": "Fibrinolytic Action, maximum relative activity (%) with the activity of Urokinase alone being defined to 100%", "setting": "[1]; at 3 × 10^-6 M, solvent physiological saline solution", "value": "150-160%"}, {"measurement": "acute toxicity (dose without death)", "setting": "mice", "value": "higher than 200 mg/40 ml saline/kg"}]}
{"smiles": "CCCCCCCCCCCCCCCC(CC(=O)N[C@@H](CO)C(=O)O)OC(=O)COCCOCCCCCCCCCC", "note": "(stereo partly drawn) [Example 22, N-[3-(3,6-dioxahexadecanoyloxy)octadecanoyl]-L-serine]", "values": [{"measurement": "Fibrinolytic Action, maximum relative activity (%) with the activity of Urokinase alone being defined to 100%", "setting": "[1]; at 3 × 10^-5 M, solvent physiological saline solution", "value": 160, "unit": "%"}]}
{"smiles": "CCCCCCCCCCCCCCCC(=O)C(CCCCCCCCCCCCCCC)CC(=O)NCCC(=O)N[C@@H](Cc1ccccc1)C(=O)O", "note": "(stereo partly drawn) [Known compound, 3-hexadecanoyloctadecanoyl-β-alanyl-L-phenylalanine, reference compound]", "values": [{"measurement": "Fibrinolytic Action, maximum relative activity (%) with the activity of Urokinase alone being defined to 100%", "setting": "[1]; at 1 × 10^-4 M, solvent Cremophore solution", "value": "140-150%"}]}
